Test results taken from patent US20240383910A1, “SMALL MOLECULE BTK DEGRADERS AND METHODS OF USE THEREOF” (Baylor College of Medicine, priority 2023, published 2024).
pIC50: −log10 of the molar value.

What was measured:
[1] = target: T1, BTK (Mus musculus, UniProt P35991); test: Western blotting for BTK in A20 cells; format: cell-based; settings: A20 cells, 40, 200 and 1000 nM, 24 h, Western blot
T1 construct: host or cells: A20
Procedure: (§1) CC-220 is a IKZF1/3 degrader developed by Celgene and used for comparison.
(§2) In contrast, PS-3, whose warhead is further reduced compared with PS-2, loses its ability to function as either a BTK degrader or a potent IKZF1/3 molecular glue. To confirm this observation, BTK degradation induced by PS-1, PS-2, and PS-3 was tested in both a human B lymphocyte cell line Ramos and mouse BALB/c B cell lymphoma line A20, with DD-03-171 from the Gray group as a positive control (FIG. 5).

[2] = target: T2, IKZF3 (Homo sapiens, UniProt Q96SW2+Q9UKT9); test: TMT-based quantitative proteomics in Mino cells, IKZF3; format: cell-based; settings: 200 nM, 4 h
T2 construct: host or cells: Mino
T2 sequence (Q9UKT9 whole entry): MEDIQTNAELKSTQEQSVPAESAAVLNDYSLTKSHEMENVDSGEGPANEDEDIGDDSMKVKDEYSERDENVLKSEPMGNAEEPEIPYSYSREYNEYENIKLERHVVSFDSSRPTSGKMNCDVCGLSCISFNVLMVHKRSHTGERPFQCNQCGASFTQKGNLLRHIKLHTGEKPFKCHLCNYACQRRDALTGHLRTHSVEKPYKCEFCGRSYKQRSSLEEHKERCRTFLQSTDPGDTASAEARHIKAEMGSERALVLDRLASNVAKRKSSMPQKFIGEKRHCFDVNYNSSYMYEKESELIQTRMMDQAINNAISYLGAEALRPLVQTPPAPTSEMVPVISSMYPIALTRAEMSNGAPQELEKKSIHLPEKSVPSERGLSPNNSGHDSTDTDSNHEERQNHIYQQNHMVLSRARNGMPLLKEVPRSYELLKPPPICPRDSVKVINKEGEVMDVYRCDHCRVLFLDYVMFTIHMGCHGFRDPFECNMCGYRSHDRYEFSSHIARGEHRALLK
T2 sequence (Q96SW2 whole entry): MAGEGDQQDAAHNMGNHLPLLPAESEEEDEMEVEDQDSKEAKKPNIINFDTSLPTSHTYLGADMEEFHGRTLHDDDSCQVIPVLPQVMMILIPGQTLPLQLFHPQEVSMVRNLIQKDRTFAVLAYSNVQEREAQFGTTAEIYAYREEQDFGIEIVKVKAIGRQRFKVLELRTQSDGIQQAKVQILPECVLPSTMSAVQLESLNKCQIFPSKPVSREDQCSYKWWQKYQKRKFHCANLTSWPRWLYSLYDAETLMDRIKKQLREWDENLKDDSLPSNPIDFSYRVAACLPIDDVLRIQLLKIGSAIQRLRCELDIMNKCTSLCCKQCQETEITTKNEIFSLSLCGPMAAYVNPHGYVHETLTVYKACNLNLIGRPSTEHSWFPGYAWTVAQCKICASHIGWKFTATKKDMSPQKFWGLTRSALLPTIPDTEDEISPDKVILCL
T2 sequence (Q16531 whole entry partner): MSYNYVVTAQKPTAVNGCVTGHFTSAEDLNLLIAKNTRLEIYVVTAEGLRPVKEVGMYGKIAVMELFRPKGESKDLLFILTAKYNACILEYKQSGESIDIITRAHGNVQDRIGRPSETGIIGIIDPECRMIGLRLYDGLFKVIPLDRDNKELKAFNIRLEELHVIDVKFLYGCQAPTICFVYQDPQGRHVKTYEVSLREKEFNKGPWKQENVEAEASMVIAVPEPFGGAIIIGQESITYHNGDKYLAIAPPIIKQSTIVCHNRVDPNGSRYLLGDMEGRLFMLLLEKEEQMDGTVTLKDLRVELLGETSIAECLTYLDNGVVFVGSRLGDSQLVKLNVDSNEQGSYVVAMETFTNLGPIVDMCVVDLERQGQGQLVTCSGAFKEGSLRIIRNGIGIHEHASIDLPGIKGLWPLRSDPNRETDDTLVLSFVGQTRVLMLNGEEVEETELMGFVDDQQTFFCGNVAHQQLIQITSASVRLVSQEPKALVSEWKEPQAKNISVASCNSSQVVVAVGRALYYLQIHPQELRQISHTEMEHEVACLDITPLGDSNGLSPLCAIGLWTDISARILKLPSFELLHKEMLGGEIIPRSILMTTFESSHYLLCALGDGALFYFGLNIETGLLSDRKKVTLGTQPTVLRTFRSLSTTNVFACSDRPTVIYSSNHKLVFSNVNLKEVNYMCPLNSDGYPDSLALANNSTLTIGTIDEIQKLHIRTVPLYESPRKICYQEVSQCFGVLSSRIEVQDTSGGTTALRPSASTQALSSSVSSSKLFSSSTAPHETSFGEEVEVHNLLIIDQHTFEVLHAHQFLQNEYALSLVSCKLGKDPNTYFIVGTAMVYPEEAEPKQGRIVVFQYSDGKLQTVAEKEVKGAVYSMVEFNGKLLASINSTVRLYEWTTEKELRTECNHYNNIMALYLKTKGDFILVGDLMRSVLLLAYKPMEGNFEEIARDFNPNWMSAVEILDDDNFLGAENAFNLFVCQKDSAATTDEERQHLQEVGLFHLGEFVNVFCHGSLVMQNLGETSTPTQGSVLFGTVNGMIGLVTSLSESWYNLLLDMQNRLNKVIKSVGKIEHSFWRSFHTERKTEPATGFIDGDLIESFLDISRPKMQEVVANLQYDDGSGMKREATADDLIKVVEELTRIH
Procedure: Panel a. […] Panel b. […] Panel c. […] Panel d-e. […] Panel g.
Two million of Mino cells were treated with DMSO or 200 nM of PS-2 for 4 hours in biological triplicates and cells were harvested by centrifugation (200×g, 4° C., 5 min). Lysis buffer (100 mM Triethylammonium bicarbonate (TEAB, Thermo Fisher Scientific, Cat. No. 90114), 2% SDS) was added to the cell pellets and homogenized with a microtip sonicator (Branson) to achieve a cell lysate with a protein concentration of ˜2 mg mL^−1. Protein concentration was determined using BCA assay (Pierce, Cat. No. 23225) and normalized to 1 mg mL^−1. One hundred μg of protein for each sample were reduced and alkylated with 10 mM Tris(2-carboxyethyl) phosphine hydrochloride (TCEP, Sigma, Cat. No. C4706) and 17 mM iodoacetamide (IAA, Sigma, Cat. No. 16125-5G), followed by digestion with trypsin (1:20, enzyme: protein, Thermo Fisher Scientific, Cat. No. 90058) for 16 h shaking at 37° C. […]
Next, tandem mass tagging (TMT)-based quantitative proteomic profiling was performed to evaluate the degradation specificity of PS-2. […] Quantitative proteomics employing TMT chemical labeling coupled with LC/MS/MS enabled the detection of >2,500 unique proteins without fractionation (FIG. 4f). […]

[3] = system: Mino cells; test: cells; settings: Homo sapiens, 72 h, read-out: IC50, cell growth inhibition / cell viability, Mino cells, 72 h
Excerpt: The cell viabilities were quantified using an Alarma Blue assay.
Dataset represents an average of n=3 replicates.

[4] = target: T3, BTK (Homo sapiens, UniProt Q06187); test: Western blotting for BTK in Ramos cells; format: cell-based; parameters: host or cells: Ramos; settings: Ramos cells, 40, 200 and 1000 nM, 24 h, Western blot
T3 sequence (Q06187 whole entry): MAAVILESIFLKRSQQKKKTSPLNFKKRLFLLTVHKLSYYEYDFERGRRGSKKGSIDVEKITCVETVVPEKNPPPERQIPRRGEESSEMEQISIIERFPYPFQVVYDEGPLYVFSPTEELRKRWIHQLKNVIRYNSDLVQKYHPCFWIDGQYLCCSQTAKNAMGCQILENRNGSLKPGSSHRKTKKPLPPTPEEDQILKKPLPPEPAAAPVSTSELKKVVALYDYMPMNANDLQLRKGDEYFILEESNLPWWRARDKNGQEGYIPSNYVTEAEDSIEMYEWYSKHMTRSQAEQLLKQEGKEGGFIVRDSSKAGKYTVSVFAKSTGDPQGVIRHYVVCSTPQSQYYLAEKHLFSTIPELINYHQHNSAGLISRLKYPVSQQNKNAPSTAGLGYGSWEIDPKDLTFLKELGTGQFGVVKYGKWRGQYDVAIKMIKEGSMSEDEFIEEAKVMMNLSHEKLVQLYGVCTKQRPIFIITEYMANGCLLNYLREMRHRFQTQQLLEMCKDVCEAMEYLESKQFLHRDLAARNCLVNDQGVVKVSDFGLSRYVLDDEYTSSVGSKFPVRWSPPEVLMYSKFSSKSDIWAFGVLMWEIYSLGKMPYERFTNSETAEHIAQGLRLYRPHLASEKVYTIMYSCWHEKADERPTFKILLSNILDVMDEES
Procedure: as §1, §2

[5] = target: T4, His-BTK (Homo sapiens, UniProt Q06187); test: TR-FRET competition binding assay with BTK-BODIPY tracer; settings: TRFRET assay, up to 100 μM
T4 construct: purchased SignalChem B10-10H-10
T4 sequence (Q06187 whole entry): as above
Procedure: Panels a-b. […] Panel c. […] Panel d. […] Panel e. […] Panel f.
Time-resolved fluorescence resonance energy transfer (TR-FRET) assay was carried out to evaluate the binding of indicated compounds and BTK by competition with a BODIPY-FL labeled BTK tracer (See FIG. 1, BTK TR-FRET tracer). The assay was performed in 20 μL assay buffer (50 mM Tris, pH7.5, 0.1% Triton X-100, 0.01% BSA, and 1 mM DTT) with 0.3 nM Tb-anti-His (Cisbio, Cat. No. 61HI2TLA), 2 nM His-BTK (SignalChem, Cat. No. […] Unless specified otherwise, all assays were performed in triplicates. The assay mixtures were incubated at room temperature in the dark for 120 min, unless specified otherwise, and the signals were collected using a BioTek Synergy H1 microplate reader to measure the fluorescence emission ratio ([…]) of each well, using a 340-nm excitation filter, a 100-μs delay, and a 200-μs integration time. Raw data from the plate reader were used directly for analysis. The curve-fitting software GraphPad Prism 9 was used to generate graphs and curves and to determine IC50 values.
To measure the binding affinities between PROTACs and BTK, a time-resolved fluorescence resonance energy transfer (TR-FRET) competition binding assay was developed. A BTK tracer was synthesized by conjugating an ibrutinib-based reversible noncovalent binder with the BODIPY-FL dye (FIG. 1). […] In the presence of the BTK tracer, competition assays were performed to measure the binding affinities between BTK and its inhibitors and PROTACs. […] The very weak BTK binding affinities for PS-RC-1, PS-RC-2, PS-RC-3 and PS-RC-4 explain their minimal BTK degradation effects in cells and further support that the observed growth inhibitory effect of PS-RC-1 in Mino cells is unrelated to the BTK pathway.

[6] = target: T3, BTK; test: BTK ligand competition assay in Ramos cells (Western blotting for BTK); format: cell-based; parameters: host or cells: Ramos; settings: 100 nM, 24 hours, Western blot
Procedure: Ramos cells were incubated overnight, and then the indicated compounds were added and incubated for 24 hours, followed by Western blotting for BTK degradation.
Ramos cells were incubated overnight, and then the indicated compounds were added and incubated for 24 hours, followed by Western blotting for BTK degradation (FIG. 7).

T1 sequence (P35991 whole entry): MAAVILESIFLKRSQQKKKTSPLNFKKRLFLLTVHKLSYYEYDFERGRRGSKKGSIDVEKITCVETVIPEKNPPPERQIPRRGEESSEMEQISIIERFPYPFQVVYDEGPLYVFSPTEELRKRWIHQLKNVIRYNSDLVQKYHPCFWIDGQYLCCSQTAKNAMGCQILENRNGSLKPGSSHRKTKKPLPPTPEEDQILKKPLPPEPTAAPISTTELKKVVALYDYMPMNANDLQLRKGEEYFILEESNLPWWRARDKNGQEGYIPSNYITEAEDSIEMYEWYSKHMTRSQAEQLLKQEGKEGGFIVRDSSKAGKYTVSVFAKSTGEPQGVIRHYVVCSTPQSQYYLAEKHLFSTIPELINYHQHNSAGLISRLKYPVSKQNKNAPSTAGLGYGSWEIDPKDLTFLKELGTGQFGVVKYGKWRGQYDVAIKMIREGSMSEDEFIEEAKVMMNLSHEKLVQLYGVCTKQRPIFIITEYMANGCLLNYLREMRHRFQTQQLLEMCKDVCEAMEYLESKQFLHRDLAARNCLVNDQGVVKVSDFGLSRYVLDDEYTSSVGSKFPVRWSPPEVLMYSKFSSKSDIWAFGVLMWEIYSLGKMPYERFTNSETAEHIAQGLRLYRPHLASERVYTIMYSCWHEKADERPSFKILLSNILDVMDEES

Q: With O=C1CCC(N2C(=O)c3cccc(NCC(=O)N4CCN(c5ccc(Nc6nccc(Oc7ccccc7)n6)cc5)CC4)c3C2=O)C(=O)N1 (stereo not drawn) [PS-2, 2-(2,6-Dioxopiperidin-3-yl)-4-((2-oxo-2-(4-(4-((4-phenoxypyrimidin-2-yl)amino)phenyl)piperazin-1-yl)ethyl)amino)isoindoline-1,3-dione] as the molecule, how does the “BTK degradation (result in words)” value [1] read?
A: potent BTK degradation

Q: And the “degradation of IKZF3” value [2]?
A: > 60%

Q: What about the pIC50 [3] of the same molecule?
A: 7.11

Q: What about the “BTK degradation (result in words)” value [4] of the same molecule?
A: potent BTK degradation

Q: What about the “binding to BTK (result in words)” value [5] of the same molecule?
A: almost no binding to BTK

Q: What about the “BTK degradation at 100 nM” value [6] of the same molecule?
A: Most BTK protein was degraded
